# Test results as given in US6372297B1, “Wood preservative oxathiazines” (Uniroyal Chemical Company, Inc., priority 1993, dated 2002).
# Read-outs that look alike come from different tables or passages of the source.
# Columns and labels:
# Streptomyces albus = test: Wood preservative efficacy against bacteria and yeasts, tryptose agar plates; type: cell-based; parameters: key: 0 = growth equal to control, 1 = inhibition, 2 = no growth
# Method: (§1) Compositions were prepared by dissolving the compounds shown in Table 1 in 50% ethanol and further diluting with sterile distilled water. […] After cooling, the medium was inoculated with the bacteria listed below. After sufficient growth of the untreated cultures, the compounds were evaluated using the following rating system: 0=growth equal to control 1=inhibition of growth by the compound 2=no growth under the influence of the compound. In this Table, the higher numbers are the most preferred species. Streptomyces albus (gram pos)
# Chaetomium globosum = test: Wood preservative efficacy against fungi, agar plate colony diameter; type: cell-based; conditions: 10 ppm, Table 6B
# Method: (§2) Each plate was inoculated with a spore suspension or with a small piece of agar (1 mm) from the margin of an actively growing colony of the test fungus. The fungi employed are listed below. After incubation at 22° C. and 70% relative humidity during a period long enough to allow significant growth of untreated controls, the diameters of the fungus colonies were measured and scored using the following rating system: 0=free of fungal growth 1=25% of fungal growth compared to untreated 2=50% of fungal growth compared to untreated 3=75% of fungal growth compared to untreated 4=Growth equal to that of untreated The scores measured for wood preservation efficacy of the compounds of this invention are listed in Tables 6a and 6b. In these Tables, the lower numbers are the most preferred species. Chaetomium globosum
# Flavobacterium sp. = test: Wood preservative efficacy against bacteria and yeasts, tryptose agar plates; type: cell-based; parameters: key: 0 = growth equal to control, 1 = growth inhibited, 2 = no growth
# Method: as §1, with “Flavobacterium sp.” for “Streptomyces albus”, “neg)” for “pos)”
# Bacillus cereus mycoides = type: cell-based; parameters: scale not given here
# Escherichia coli = test: Wood preservative efficacy against bacteria and yeasts, tryptose agar plates; type: cell-based; parameters: key: 0 = growth equal to control, 1 = growth inhibited, 2 = no growth
# Method: as §1, with “Escherichia coli” for “Streptomyces albus”
# Mucor sp. = test: Wood preservative efficacy against fungi, agar plate colony diameter; type: cell-based; conditions: 100 ppm, Table 6B
# Method: as §2, with “Mucor sp.” for “Chaetomium globosum”
# Aspergillus flavus = test: as above; type: cell-based; conditions: 10 ppm, Table 6B
# Method: as §2, with “Aspergillus flavus” for “Chaetomium globosum”
# Pseudomonas aeruginosa = test: Wood preservative efficacy against bacteria and yeasts, tryptose agar plates; type: cell-based; parameters: key: 0 = growth equal to control, 1 = growth inhibited, 2 = no growth; conditions: 100 ppm in tryptose agar
# Method: as §1, with “Pseudomonas aeruginosa” for “Streptomyces albus”, “neg)” for “pos)”
# Coriolus versicolor = test: Wood preservative efficacy against fungi, agar plate colony diameter; type: cell-based; conditions: 10 ppm, Table 6B
# Method: as §2, with “Coriolus versicolor” for “Chaetomium globosum”
# Enterobacter aerogenes = test: Wood preservative efficacy against bacteria and yeasts, tryptose agar plates; type: cell-based; parameters: key: 0 = growth equal to control, 1 = inhibition, 2 = no growth
# Method: as §1, with “Enterobacter aerogenes” for “Streptomyces albus”, “neg)” for “pos)”
# Coniophora puteana = test: Wood preservative efficacy against fungi, agar plate colony diameter; type: cell-based; parameters: key: 0 = no fungal growth, 1-3 = 25/50/75% of untreated, 4 = equal; conditions: 10 ppm, Table 6B
# Method: as §2, with “Coniophora puteana (syn. C. cerebella)” for “Chaetomium globosum”
# Pseudomonas alcaligenes = test: Wood preservative efficacy against bacteria and yeasts, tryptose agar plates; type: cell-based; parameters: key: 0 = growth equal to control, 1 = inhibition, 2 = no growth; conditions: 100 ppm in tryptose agar
# Method: as §1, with “Pseudomonas alcaligenes” for “Streptomyces albus”, “neg)” for “pos)”
# [1] = test system: blue-stain fungi and molds; test: Activity against blue-stain fungi and molds in a stick test (threshold concentrations); conditions: beech sticks, 22° C., 90% relative humidity
# Method: Representative compounds of this invention were dissolved in 50% ethanol. Each compound was then diluted serially using 50% ethanol. […] After three (3) hours, the solutions containing the test compounds were poured off and the treated sticks were allowed to dry in a sterile laminar air flow. Each treated stick was then placed in a Petri dish which had been previously seeded with inoculum. Two drops of a test fungal or spore suspension were pipetted onto the upper surface of each treated stick. The Petri dishes containing the treated sticks were incubated at 22° C. and 90% relative humidity. The treated sticks were evaluated after there was sufficient growth of fungus on control sticks (i.e., untreated sticks) incubated in the same manner. The following score system was used: 0: Stick free of fungal/mold growth 1: Traces of fungal growth on the stick 2: Slight growth (5 to 25% of the surface covered with fungal growth) 3: Moderate growth (25 to 50% covered with fungal growth) 4. Vigorous to maximum fungal growth (more than 50% growth) […]
structure (smiles),measurement,setting,value
C[S+]1CCON=C1c1ccccc1 (stereo not shown) [Compound 17],"Score of bactericidal activity, S. albus",Streptomyces albus; 10 ppm in tryptose agar,0
same,"Score of bactericidal activity, S. albus",Streptomyces albus; 100 ppm in tryptose agar,0
same,"Score of fungicidal activity, C. GLOBOSUM",Chaetomium globosum,4
same,"Score of bactericidal activity, Flavobacter",Flavobacterium sp.; 10 ppm in tryptose agar,0
same,"Score of bactericidal activity, Flavobacter",Flavobacterium sp.; 100 ppm in tryptose agar,0
same,"Score of bactericidal activity, B. cereus mycoides",Bacillus cereus mycoides; 10 ppm in tryptose agar,0
same,"Score of bactericidal activity, B. cereus mycoides",Bacillus cereus mycoides; 100 ppm in tryptose agar,0
same,"Score of bactericidal activity, E. Coli",Escherichia coli; 10 ppm in tryptose agar,0
same,"Score of bactericidal activity, E. Coli",Escherichia coli; 100 ppm in tryptose agar,0
same,"Score of fungicidal activity, MUCOR SP",Mucor sp.,4
same,"Score of fungicidal activity, A. FLAVUS",Aspergillus flavus,4
same,"Score of bactericidal activity, P. aeruginosa",Pseudomonas aeruginosa,0
same,"Score of fungicidal activity, G. VERSICLOR",Coriolus versicolor,4
same,"Score of bactericidal activity, E. aerogenes",Enterobacter aerogenes; 10 ppm in tryptose agar,0
same,"Score of bactericidal activity, E. aerogenes",Enterobacter aerogenes; 100 ppm in tryptose agar,0
same,"Score of fungicidal activity, C. PUTEANA",Coniophora puteana,4
same,"Score of bactericidal activity, P. alcalgenes",Pseudomonas alcaligenes,0
"CC1C[S+]([O-])C(c2cccs2)=NO1 (stereo not shown) [Compound 50, 5,6-dihydro-6-methyl-3-(2-thienyl)-1,4,2-oxathiazine-4-oxide]","Threshold concentration (ppm), A. niger, score 0","[1]; A. niger, minimum concentration to obtain score 0",1000 ppm
same,"Threshold concentration (ppm), A. niger, score 1-2","[1]; A. niger, minimum concentration to obtain score 1-2",250-500 ppm
same,"Threshold concentration (ppm), Aureobasidium, score 0","[1]; Aureobasidium, minimum concentration to obtain score 0",>1000 ppm
same,"Threshold concentration (ppm), Aureobasidium, score 1-2","[1]; Aureobasidium, minimum concentration to obtain score 1-2",100-500 ppm
same,"Threshold concentration (ppm), Sclerophoma, score 0","[1]; Sclerophoma, minimum concentration to obtain score 0",100 ppm
same,"Threshold concentration (ppm), Sclerophoma, score 1-2","[1]; Sclerophoma, minimum concentration to obtain score 1-2",50-100 ppm
same,"Threshold concentration (ppm), Trichoderma, score 0","[1]; Trichoderma, minimum concentration to obtain score 0",5000 ppm
same,"Threshold concentration (ppm), Trichoderma, score 1-2","[1]; Trichoderma, minimum concentration to obtain score 1-2",1000-2500 ppm
same,melting point,,114 to 115 °C
"CC1CSC(c2cccs2)=NO1 (stereo not shown) [Compound 52, 5,6-dihydro-6-methyl-3-(2-thienyl)-1,4,2-oxathiazine]",melting point,,70 to 72 °C
"Clc1ccc(C2=NOCCS2)s1 [Compound 59, 3-(5-chloro-2-thienyl)-5,6-dihydro-1,4,2-oxathiazine]",melting point,,74 to 77 °C
